Results: patent US8163724B2, “Glucocorticosteroids, processes for their preparation, pharmaceutical compositions containing them and their use in therapy” (AstraZeneca AB, priority 2007, dated 2012)

Target: T1, recombinant human GR (Homo sapiens, UniProt P04150)
T1 construct: purchased Panvera/Invitrogen P2812 (kit P2893)
T1 sequence (P04150 1-777): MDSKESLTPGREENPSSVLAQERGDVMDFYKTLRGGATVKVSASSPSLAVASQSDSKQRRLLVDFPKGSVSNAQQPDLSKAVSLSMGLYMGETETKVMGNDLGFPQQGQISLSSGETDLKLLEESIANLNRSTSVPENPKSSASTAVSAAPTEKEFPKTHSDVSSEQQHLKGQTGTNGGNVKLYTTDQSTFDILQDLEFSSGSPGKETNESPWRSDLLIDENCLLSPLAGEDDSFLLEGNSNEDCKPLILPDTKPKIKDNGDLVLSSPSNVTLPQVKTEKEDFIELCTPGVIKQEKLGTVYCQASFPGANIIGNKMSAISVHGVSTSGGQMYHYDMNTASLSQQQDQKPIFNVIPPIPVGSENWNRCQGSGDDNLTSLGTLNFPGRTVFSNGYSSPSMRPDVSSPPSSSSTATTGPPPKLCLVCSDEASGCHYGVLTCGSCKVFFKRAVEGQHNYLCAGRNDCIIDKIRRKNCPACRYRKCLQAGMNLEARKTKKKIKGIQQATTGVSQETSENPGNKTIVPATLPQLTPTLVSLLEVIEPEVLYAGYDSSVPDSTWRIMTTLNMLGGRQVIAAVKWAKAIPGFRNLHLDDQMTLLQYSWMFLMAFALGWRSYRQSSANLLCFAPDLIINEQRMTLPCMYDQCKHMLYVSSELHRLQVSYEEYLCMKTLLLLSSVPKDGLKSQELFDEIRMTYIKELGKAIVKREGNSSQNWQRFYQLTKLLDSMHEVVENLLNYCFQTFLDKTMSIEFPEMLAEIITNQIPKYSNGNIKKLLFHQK
Assay: Human Glucocorticoid Receptor (GR) Assay (fluorescence polarization, Panvera/Invitrogen kit)
Type: binding
Conditions: fluorescence polarization; GS Red tracer; 2 hours at room temperature; 100% control 10 μM Dexamethasone; read-out: Inhibition of GR binding, IC50
How it was run: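 Fluorescence polarization competition with recombinant GR and GS Red fluorescent ligand plus stabilizing peptide and DTT in potassium phosphate/sodium molybdate/EDTA buffer with DMSO. Incubated 2 hours at room temperature in the dark; 0% control DMSO, 100% control 10 μM dexamethasone.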

CC(C)C(=O)O[C@]1(C(=O)SCC#N)CC[C@H]2[C@@H]3CCC4=Cc5c(cnn5-c5ccc(F)cc5)C[C@]4(C)[C@H]3[C@@H](O)C[C@@]21C [Example 111, (1R,3aS,3bS,10aR,10bS,11S,12aS)-1-{[(Cyanomethyl)sulfanyl]carbonyl}-7-(4-fluorophenyl)-11-hydroxy-10a,12a-dimethyl-1,2,3,3a,3b,4,5,7,10,10a,10b,11,12,12a-tetradecahydrocyclopenta[5,6]naphtho[1,2-f]indazol-1-yl 2-methylpropanoate]
IC50: 6.3 nM

CC(C)CC(=O)O[C@]1(C(=O)SCC#N)CC[C@H]2[C@@H]3CCC4=Cc5c(cnn5-c5ccc(F)cc5)C[C@]4(C)[C@H]3[C@@H](O)C[C@@]21C [Example 112, (1R,3aS,3bS,10aR,10bS,11S,12aS)-1-{[(Cyanomethyl)sulfanyl]carbonyl}-7-(4-fluorophenyl)-11-hydroxy-10a,12a-dimethyl-1,2,3,3a,3b,4,5,7,10,10a,10b,11,12,12a-tetradecahydrocyclopenta[5,6]naphtho[1,2-f]indazol-1-yl 3-methylbutanoate]
IC50: 18 nM

C[C@]12Cc3cnn(-c4ccc(F)cc4)c3C=C1CC[C@@H]1[C@@H]2[C@@H](O)C[C@@]2(C)[C@H]1CC[C@]2(OC(=O)C1CCC1)C(=O)SCC#N [Example 113, (1R,3aS,3bS,10aR,10bS,11S,12aS)-1-{[(Cyanomethyl)sulfanyl]carbonyl}-7-(4-fluorophenyl)-11-hydroxy-10a,12a-dimethyl-1,2,3,3a,3b,4,5,7,10,10a,10b,11,12,12a-tetradecahydrocyclopenta[5,6]naphtho[1,2-f]indazol-1-yl cyclobutanecarboxylate]
IC50: 11 nM

C[C@]12Cc3cnn(-c4ccc(F)cc4)c3C=C1CC[C@@H]1[C@@H]2[C@@H](O)C[C@@]2(C)[C@H]1CC[C@]2(OC(=O)CC1CCCC1)C(=O)SCC#N [Example 114, (1R,3aS,3bS,10aR,10bS,11S,12aS)-1-{[(Cyanomethyl)sulfanyl]carbonyl}-7-(4-fluorophenyl)-11-hydroxy-10a,12a-dimethyl-1,2,3,3a,3b,4,5,7,10,10a,10b,11,12,12a-tetradecahydrocyclopenta[5,6]naphtho[1,2-f]indazol-1-yl cyclopentylacetate]
IC50: 16 nM

C[C@]12Cc3cnn(-c4ccc(F)cc4)c3C=C1CC[C@@H]1[C@@H]2[C@@H](O)C[C@@]2(C)[C@H]1CC[C@]2(OC(=O)c1cccs1)C(=O)SCC#N [Example 115, (1R,3aS,3bS,10aR,10bS,11S,12aS)-1-{[(Cyanomethyl)sulfanyl]carbonyl}-7-(4-fluorophenyl)-11-hydroxy-10a,12a-dimethyl-1,2,3,3a,3b,4,5,7,10,10a,10b,11,12,12a-tetradecahydrocyclopenta[5,6]naphtho[1,2-f]indazol-1-yl thiophene-2-carboxylate]
IC50: 10 nM

Cc1cc(C(=O)O[C@]2(C(=O)SCC#N)CC[C@H]3[C@@H]4CCC5=Cc6c(cnn6-c6ccc(F)cc6)C[C@]5(C)[C@H]4[C@@H](O)C[C@@]32C)no1 [Example 116, (1R,3aS,3bS,10aR,10bS,11S,12aS)-1-{[(Cyanomethyl)sulfanyl]carbonyl}-7-(4-fluorophenyl)-11-hydroxy-10a,12a-dimethyl-1,2,3,3a,3b,4,5,7,10,10a,10b,11,12,12a-tetradecahydrocyclopenta[5,6]naphtho[1,2-f]indazol-1-yl 5-methylisoxazole-3-carboxylate]
IC50: 6.9 nM

CSCOC(=O)[C@@]1(O)CC[C@H]2[C@@H]3CCC4=Cc5c(cnn5-c5ccc(F)cc5)C[C@]4(C)[C@H]3[C@@H](O)C[C@@]21C [Example 117, (Methylsulfanyl)methyl(1R,3aS,3bS,10aR,10bS,11S,12aS)-7-(4-fluorophenyl)-1,11-dihydroxy-10a,12a-dimethyl-1,2,3,3a,3b,4,5,7,10,10a,10b,11,12,12a-tetradecahydrocyclopenta[5,6]naphtho[1,2-f]indazole-1-carboxylate]
IC50: 7 nM

CSCSC(=O)[C@@]1(OC(C)=O)CC[C@H]2[C@@H]3CCC4=Cc5c(cnn5-c5ccc(F)cc5)C[C@]4(C)[C@H]3[C@@H](O)C[C@@]21C [Example 118, (1R,3aS,3bS,10aR,10bS,11S,12aS)-7-(4-Fluorophenyl)-11-hydroxy-10a,12a-dimethyl-1-({[(methylsulfanyl)methyl]sulfanyl}carbonyl)-1,2,3,3a,3b,4,5,7,10,10a,10b,11,12,12a-tetradecahydrocyclopenta[5,6]naphtho[1,2-f]indazol-1-yl acetate]
IC50: 18 nM

CSCOC(=O)[C@@]1(OC(C)=O)CC[C@H]2[C@@H]3CCC4=Cc5c(cnn5-c5ccc(F)cc5)C[C@]4(C)[C@H]3[C@@H](O)C[C@@]21C [Example 119, (Methylsulfanyl)methyl(1R,3aS,3bS,10aR,10bS,11S,12aS)-1-(acetyloxy)-7-(4-fluorophenyl)-11-hydroxy-10a,12a-dimethyl-1,2,3,3a,3b,4,5,7,10,10a,10b,11,12,12a-tetradecahydrocyclopenta[5,6]naphtho[1,2-f]indazole-1-carboxylate]
IC50: 4.6 nM

CSCOC(=O)[C@@]1(OCSC)CC[C@H]2[C@@H]3CCC4=Cc5c(cnn5-c5ccc(F)cc5)C[C@]4(C)[C@H]3[C@@H](O)C[C@@]21C [Example 120, (Methylsulfanyl)methyl(1R,3aS,3bS,10aR,10bS,11S,12aS)-7-(4-fluorophenyl)-11-hydroxy-10a,12a-dimethyl-1-[(methylsulfanyl)methoxy]-1,2,3,3a,3b,4,5,7,10,10a,10b,11,12,12a-tetradecahydrocyclopenta[5,6]naphtho[1,2-f]indazole-1-carboxylate]
IC50: 7 nM

CCSC(=O)COC(=O)[C@@]1(OC(C)=O)CC[C@H]2[C@@H]3CCC4=Cc5c(cnn5-c5ccc(F)cc5)C[C@]4(C)[C@H]3[C@@H](O)C[C@@]21C [Example 121, 2-(Ethylsulfanyl)-2-oxoethyl(1R,3aS,3bS,10aR,10bS,11S,12aS)-1-(acetyloxy)-7-(4-fluorophenyl)-11-hydroxy-10a,12a-dimethyl-1,2,3,3a,3b,4,5,7,10,10a,10b,11,12,12a-tetradecahydrocyclopenta[5,6]naphtho[1,2-f]indazole-1-carboxylate]
IC50: 6.6 nM

CC(=O)O[C@]1(C(=O)CO)CC[C@H]2[C@@H]3CCC4=Cc5c(cnn5-c5ccc(F)cc5)C[C@]4(C)[C@H]3[C@@H](O)C[C@@]21C [Example 122, (1R,3aS,3bS,10aR,10bS,11S,12aS)-7-(4-Fluorophenyl)-11-hydroxy-1-(hydroxyacetyl)-10a,12a-dimethyl-1,2,3,3a,3b,4,5,7,10,10a,10b,11,12,12a-tetradecahydrocyclopenta[5,6]naphtho[1,2-f]indazol-1-yl acetate]
IC50: 1.3 nM

CC(=O)O[C@]1(C(=O)CSC(C)=O)CC[C@H]2[C@@H]3CCC4=Cc5c(cnn5-c5ccc(F)cc5)C[C@]4(C)[C@H]3[C@@H](O)C[C@@]21C [Example 123, (1R,3aS,3bS,10aR,10bS,11S,12aS)-1-[(Acetylsulfanyl)acetyl]-7-(4-fluorophenyl)-11-hydroxy-10a,12a-dimethyl-1,2,3,3a,3b,4,5,7,10,10a,10b,11,12,12a-tetradecahydrocyclopenta[5,6]naphtho[1,2-f]indazol-1-yl acetate]
IC50: 5.4 nM

CSCC(=O)[C@@]1(OC(C)=O)CC[C@H]2[C@@H]3CCC4=Cc5c(cnn5-c5ccc(F)cc5)C[C@]4(C)[C@H]3[C@@H](O)C[C@@]21C [Example 124, (1R,3aS,3bS,10aR,10bS,11S,12aS)-7-(4-Fluorophenyl)-11-hydroxy-10a,12a-dimethyl-1-[(methylsulfanyl)acetyl]-1,2,3,3a,3b,4,5,7,10,10a,10b,11,12,12a-tetradecahydrocyclopenta[5,6]naphtho[1,2-f]indazol-1-yl acetate]
IC50: 2.4 nM

CSCO[C@]1(C(=O)SCF)CC[C@H]2[C@@H]3CCC4=Cc5c(cnn5-c5ccc(F)cc5)C[C@]4(C)[C@H]3[C@@H](O)C[C@@]21C [Example 125, S-(Fluoromethyl)(1R,3aS,3bS,10aR,10bS,11S,12aS)-7-(4-fluorophenyl)-11-hydroxy-10a,12a-dimethyl-1-[(methylsulfanyl)methoxy]1,2,3,3a,3b,4,5,7,10,10a,10b,11,12,12a-tetradecahydrocyclopenta[5,6]naphtho[1,2-f]indazole-1-carbothioate]
IC50: 4.7 nM
